Tests used:
BV-2 [1] = assay: Antiinflammatory activity in LPS-induced mouse BV-2 cells assessed as reduction in NO release relative to control; type: functional; design: scale not given: the % may be the effect or the level left
[2] = Cytotoxicity against mouse BV-2 cells assessed as cell viability at 10 uM by MTT assay relative to control; type: toxicity, cell-based; details: read-out: Activity
BV-2 [3] = assay: Antiinflammatory activity in LPS induced mouse BV-2 cells assessed as inhibition of NO production by Griess reagent based assay; type: functional, cell-based
[4] = Cytotoxicity against mouse BV-2 cells assessed as cell viability at 1 uM by MTT assay relative to control; type: toxicity, cell-based; details: read-out: Activity
BV-2 [5] = assay: Antiinflammatory activity in LPS induced mouse BV-2 cells assessed as NO production at 10 uM by Griess reagent based assay relative to control
BV-2 [6] = assay: Antiinflammatory activity in LPS induced mouse BV-2 cells assessed as NO production at 1 uM by Griess reagent based assay relative to control
[7] = tested on: Human immunodeficiency virus 1; assay: Antiviral activity against HIV-1 infected in human C8166 cells assessed as inhibition of virus-induced cytopathic effect; type: functional, organism-based; details: Human immunodeficiency virus 1, C8166
RAW264.7 = assay: Antiinflammatory activity in LPS-induced mouse RAW264.7 cells assessed as inhibition of NO production; type: functional, cell-based
[8] = tested on: Human immunodeficiency virus 1; assay: Antiviral activity against HIV-1; type: functional, organism-based

SMILES | Activity (BV-2 [1]) [%] | viability at 10 µM [2] [%] | IC50 (BV-2 [3]) [µM] | viability at 1 µM [4] [%] | level, % of control at 10 µM (BV-2 [5]) [%] | level, % of control at 1 µM (BV-2 [6]) [%] | EC50 [7] [µM] | IC50 (RAW264.7) [µM] | EC50 [8] [µM]
CC(=O)Oc1ccc2c(=O)c(-c3ccc(-n4cc(-c5ccc6c(c5)C(=O)N5CCCC5C(=O)N6)nn4)cc3)coc2c1 (stereo unspecified) | 64.28 |  |  |  |  |  |  |  | 
COc1c2n(cc(C(=O)Nc3cccc(-c4cn(-c5c(C)cc(C)cc5C)nn4)c3)c1=O)C[C@@H]1OCC[C@@H](C)N1C2=O |  | 96.7 | 9.68 | 102 | 46 | 85.1 |  |  | 
C=CC(C)(C)c1cc2cc([C@@H](O)[C@@H](O)C(C)(C)O)c(O)cc2oc1=O |  |  |  |  |  |  | < 10 | < 10 | 
COc1c2n(cc(C(=O)Nc3ccc(-c4cn(-c5cc(C(F)(F)F)cc(C(F)(F)F)c5)nn4)cc3)c1=O)C[C@@H]1OCC[C@@H](C)N1C2=O |  | 71.1 |  | 105 | 99.6 | 105 |  |  | 
COc1c2n(cc(C(=O)Nc3cccc(-c4cn(-c5cc(C(F)(F)F)cc(C(F)(F)F)c5)nn4)c3)c1=O)C[C@@H]1OCC[C@@H](C)N1C2=O |  | 71.3 |  | 108 | 71.1 | 81.6 |  |  | 
COc1c2n(cc(C(=O)Nc3ccccc3-c3cn(-c4ccc(C(F)(F)F)cc4)nn3)c1=O)C[C@@H]1OCC[C@@H](C)N1C2=O |  | 96.3 |  | 104 | 84.7 | 81 |  |  | 
COc1c2n(cc(C(=O)Nc3cccc(-c4cn(-c5ccccc5I)nn4)c3)c1=O)C[C@@H]1OCC[C@@H](C)N1C2=O |  | 89.2 | 5.03 | 96.4 | 52.1 | 78.4 |  |  | 
COc1c2n(cc(C(=O)Nc3ccc(-c4cn(-c5cc(C(F)(F)F)ccc5C(F)(F)F)nn4)cc3)c1=O)C[C@@H]1OCC[C@@H](C)N1C2=O |  | 109 |  | 108 | 69 | 83 |  |  | 
COc1c2n(cc(C(=O)Nc3cccc(-c4cn(-c5cc(C(F)(F)F)ccc5C(F)(F)F)nn4)c3)c1=O)C[C@H]1OC[C@H](C)N1C2=O |  | 71.1 |  | 91.9 | 109 | 118 |  |  | 
COc1c2n(cc(C(=O)Nc3cccc(-c4cn(-c5ccc(F)cc5)nn4)c3)c1=O)C[C@@H]1OCC[C@@H](C)N1C2=O |  | 69.2 |  | 111 | 77 | 76.6 |  |  | 
Cc1ccc([C@@](C)(O)CC[C@@H](O)C(C)(C)O)cc1 |  |  |  |  |  |  |  | < 10 | < 10
COc1c2n(cc(C(=O)Nc3cccc(-c4cn(-c5ccccc5I)nn4)c3)c1=O)C[C@H]1OC[C@H](C)N1C2=O |  | 48.7 |  | 99.8 | 120 | 143 |  |  | 
COc1c2n(cc(C(=O)Nc3cccc(-c4cn(-c5ccccc5F)nn4)c3)c1=O)C[C@@H]1OCC[C@@H](C)N1C2=O |  | 68.6 |  | 103 | 53.7 | 91.7 |  |  | 
COc1c2n(cc(C(=O)Nc3cccc(-c4cn(-c5c(C)cc(C)cc5C)nn4)c3)c1=O)C[C@H]1OC[C@H](C)N1C2=O |  | 49.3 |  | 94.6 | 89.6 | 116 |  |  | 
COc1c2n(cc(C(=O)Nc3cccc(-c4cn(-c5cc(C(F)(F)F)cc(C(F)(F)F)c5)nn4)c3)c1=O)C[C@H]1OC[C@H](C)N1C2=O |  | 69.6 |  | 97.1 | 97.9 | 114 |  |  | 
COc1c2n(cc(C(=O)Nc3cccc(-c4cn(-c5ccccc5Cl)nn4)c3)c1=O)C[C@H]1OC[C@H](C)N1C2=O |  | 43.6 |  | 90.7 | 59.4 | 106 |  |  | 
COc1c2n(cc(C(=O)Nc3cccc(-c4cn(-c5ccccc5)nn4)c3)c1=O)C[C@@H]1OCC[C@@H](C)N1C2=O |  | 62.3 |  | 104 | 77.3 | 78.6 |  |  | 
COc1c2n(cc(C(=O)Nc3cccc(-c4cn(-c5ccc(C(F)(F)F)cc5)nn4)c3)c1=O)C[C@@H]1OCC[C@@H](C)N1C2=O |  | 56.3 |  | 71.5 | 48.3 | 83.7 |  |  | 

SMILES | Activity (BV-2 [1]) [%] | viability at 10 µM [2] [%] | IC50 (BV-2 [3]) [µM] | viability at 1 µM [4] [%] | level, % of control at 10 µM (BV-2 [5]) [%] | level, % of control at 1 µM (BV-2 [6]) [%] | EC50 [7] [µM] | IC50 (RAW264.7) [µM] | EC50 [8] [µM]
CCc1ccccc1-n1cc(-c2ccc(NC(=O)c3cn4c(c(OC)c3=O)C(=O)N3[C@H](C)CCO[C@H]3C4)cc2)nn1 |  | 123 |  | 110 | 60.2 | 118 |  |  | 
COc1ccccc1-n1cc(-c2ccc(NC(=O)c3cn4c(c(OC)c3=O)C(=O)N3[C@H](C)CCO[C@H]3C4)cc2)nn1 |  | 81.6 |  | 108 | 107 | 108 |  |  | 
COc1c2n(cc(C(=O)Nc3ccc(-c4cn(-c5ccccc5F)nn4)cc3)c1=O)C[C@@H]1OCC[C@@H](C)N1C2=O |  | 83 |  | 101 | 87.2 | 98.5 |  |  | 
COc1c2n(cc(C(=O)Nc3ccccc3-c3cn(-c4cc(C(F)(F)F)cc(C(F)(F)F)c4)nn3)c1=O)C[C@@H]1OCC[C@@H](C)N1C2=O |  | 112 |  | 104 | 73 | 86.6 |  |  | 
COc1ccccc1-n1cc(-c2cccc(NC(=O)c3cn4c(c(OC)c3=O)C(=O)N3[C@H](C)CCO[C@H]3C4)c2)nn1 |  | 76.8 | 11 | 109 | 48.6 | 76 |  |  | 
COc1c2n(cc(C(=O)Nc3cccc(-c4cn(-c5cccc(C(F)(F)F)c5)nn4)c3)c1=O)C[C@@H]1OCC[C@@H](C)N1C2=O |  | 16.2 |  | 47.1 | 2.3 | 99.2 |  |  | 
CCc1ccccc1-n1cc(-c2cccc(NC(=O)c3cn4c(c(OC)c3=O)C(=O)N3[C@H](C)CCO[C@H]3C4)c2)nn1 |  | 49.8 |  | 101 | 59.9 | 94.5 |  |  | 
COc1c2n(cc(C(=O)Nc3ccc(-c4cn(-c5c(C)cc(C)cc5C)nn4)cc3)c1=O)C[C@@H]1OCC[C@@H](C)N1C2=O |  | 114 |  | 106 | 78.6 | 98.9 |  |  | 
CCc1ccccc1-n1cc(-c2cccc(NC(=O)c3cn4c(c(OC)c3=O)C(=O)N3[C@@H](C)CO[C@@H]3C4)c2)nn1 |  | 46.1 |  | 99.3 | 102 | 107 |  |  | 
COc1c2n(cc(C(=O)Nc3ccc(-c4cn(-c5ccccc5)nn4)cc3)c1=O)C[C@@H]1OCC[C@@H](C)N1C2=O |  | 70.2 |  | 104 | 91.4 | 88.8 |  |  | 
COc1c2n(cc(C(=O)Nc3ccc(-c4cn(-c5ccc(F)cc5)nn4)cc3)c1=O)C[C@@H]1OCC[C@@H](C)N1C2=O |  | 73.3 |  | 103 | 82.1 | 91.9 |  |  | 
COc1c2n(cc(C(=O)Nc3cccc(-c4cn(-c5ccccc5C(F)(F)F)nn4)c3)c1=O)C[C@H]1OC[C@H](C)N1C2=O |  | 42.9 |  | 97.4 | 82.3 | 103 |  |  | 
COc1c2n(cc(C(=O)Nc3ccccc3-c3cn(-c4ccccc4F)nn3)c1=O)C[C@@H]1OCC[C@@H](C)N1C2=O |  | 98.5 |  | 100 | 78.7 | 86.8 |  |  | 
COc1c2n(cc(C(=O)Nc3cccc(-c4cn(-c5ccc(F)cc5)nn4)c3)c1=O)C[C@H]1OC[C@H](C)N1C2=O |  | 68 |  | 109 | 120 | 129 |  |  | 
COc1c2n(cc(C(=O)Nc3ccc(-c4cn(-c5cccc(C(F)(F)F)c5)nn4)cc3)c1=O)C[C@@H]1OCC[C@@H](C)N1C2=O |  | 73.8 |  | 105 | 90.5 | 96.8 |  |  | 
COc1c2n(cc(C(=O)Nc3ccc(-c4cn(-c5ccccc5Cl)nn4)cc3)c1=O)C[C@@H]1OCC[C@@H](C)N1C2=O |  | 102 |  | 100 | 79.6 | 98.8 |  |  | 
COc1c2n(cc(C(=O)Nc3ccc(-c4cn(-c5ccccc5C(F)(F)F)nn4)cc3)c1=O)C[C@@H]1OCC[C@@H](C)N1C2=O |  | 103 |  | 103 | 91.1 | 109 |  |  | 

Reference: ChEMBL document CHEMBL6153034, “Synthesis of dolutegravir derivatives modified by 1,2,3-triazole structure and their anti-inflammatory activity in LPS-induced BV2 cells” (Bioorg Med Chem Lett, 2025)
